According to ChEMBL document CHEMBL1201862, “PubChem BioAssay data set” (2004):
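Each compound was tested at five concentrations against cells in 96-well plates for 48 hours. GI50 marks 50% less growth.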 Activity calls are given as the source filed them. No stated cut-off is given here; in the data, active = GI50 up to about 1.1 µM and inactive = higher.

What was measured:
Assay in all cases: DTP human tumour cell line panel, 48 h
SW-620 = test system: SW-620
EKVX = test system: EKVX
SNB-75 = test system: SNB-75
HOP-92 = test system: HOP-92
NCI-H522 = test system: NCI-H522
M19-MEL = test system: M19-MEL
HCT-116 = test system: HCT-116
RXF 393 = test system: RXF 393
Malme-3M = test system: Malme-3M
SNB-19 = test system: SNB-19
CCRF-CEM = test system: CCRF-CEM
A549 = test system: A549
M14 = test system: M14
RPMI-8226 = test system: RPMI-8226
SR = test system: SR
T47D = test system: T47D
PC-3 = test system: PC-3
MDA-MB-231 = test system: MDA-MB-231
Hs-578T = test system: Hs-578T
DU-145 = test system: DU-145

Measured: GI50

COc1ccc2c(c1)OCCc1cn[nH]c1-2
inactive: SW-620 36.3 µM | EKVX 4.44 µM | SNB-75 28.4 µM | HOP-92 15.4 µM | NCI-H522 29 µM | M19-MEL 69 µM | HCT-116 42.4 µM | RXF 393 61.2 µM | Malme-3M 38.9 µM | SNB-19 88.7 µM | CCRF-CEM 37.4 µM | A549 53.8 µM

O=C(CSc1nnc(Cc2ccccc2)o1)Nc1cccc([N+](=O)[O-])c1
inactive: M14 > 100 µM | SNB-75 58.5 µM | NCI-H522 > 100 µM | M19-MEL > 100 µM | HCT-116 > 100 µM | RXF 393 > 100 µM | Malme-3M > 100 µM | RPMI-8226 > 100 µM | CCRF-CEM > 100 µM | A549 > 100 µM

COc1cc(OC)c(C(=O)c2cccs2)cc1N
inactive: M14 > 100 µM | SW-620 > 100 µM | EKVX > 100 µM | SNB-75 > 100 µM | M19-MEL > 100 µM | RXF 393 > 100 µM | Malme-3M > 100 µM | SNB-19 > 100 µM | RPMI-8226 > 100 µM | CCRF-CEM > 100 µM | A549 > 100 µM

COc1cc(NC(C)=O)c2[nH]c3c(C)cc(NC(C)=O)c(C)c3c2c1
inactive: M14 > 100 µM | SW-620 > 100 µM | EKVX > 100 µM | SNB-75 > 100 µM | HOP-92 > 100 µM | NCI-H522 > 100 µM | M19-MEL > 100 µM | HCT-116 > 100 µM | RXF 393 > 100 µM | SNB-19 > 100 µM | RPMI-8226 > 100 µM | CCRF-CEM > 100 µM | A549 > 100 µM

Cc1c(C)n(-c2ccccc2)c2nc(S(C)(=O)=O)nc(S(C)(=O)=O)c12
inactive: M14 1.62 µM | T47D 2.05 µM | EKVX 5.41 µM | SNB-75 19.3 µM | HOP-92 1.61 µM | NCI-H522 1.75 µM | HCT-116 1.53 µM | PC-3 5.06 µM | Malme-3M 1.4 µM | MDA-MB-231 5.73 µM | Hs-578T 16.1 µM | SNB-19 3.3 µM | RPMI-8226 2.65 µM | A549 16 µM | DU-145 14.6 µM
active: SR 1 µM | SW-620 0.228 µM | RXF 393 0.475 µM | CCRF-CEM 0.634 µM

C/C(=C/C(=O)Nc1ccccc1)Nc1onc(C)c1C
inactive: SW-620 > 100 µM | EKVX > 100 µM | SNB-75 38.4 µM | HOP-92 > 100 µM | NCI-H522 > 100 µM | M19-MEL > 100 µM | HCT-116 > 100 µM | RXF 393 > 100 µM | Malme-3M > 100 µM | SNB-19 > 100 µM | RPMI-8226 > 100 µM | CCRF-CEM > 100 µM | A549 > 100 µM

O=c1[nH]c(=O)n(C2OC(CO)C(O)C2O)c2c1CCCC2 (centres undefined)
inactive: SR > 100 µM | M14 > 100 µM | SW-620 > 100 µM | T47D > 100 µM | EKVX > 100 µM | SNB-75 > 100 µM | HOP-92 > 100 µM | NCI-H522 > 100 µM | HCT-116 > 100 µM | RXF 393 > 100 µM | PC-3 > 100 µM | Malme-3M > 100 µM | MDA-MB-231 > 100 µM | Hs-578T > 100 µM | SNB-19 > 100 µM | RPMI-8226 > 100 µM | CCRF-CEM > 100 µM | A549 > 100 µM | DU-145 > 100 µM

CCOC(=O)C1(C#N)C(c2ccccc2)CC(O)(c2ccc([N+](=O)[O-])cc2)C(C(=O)c2ccc([N+](=O)[O-])cc2)C1c1ccccc1 (centres undefined)
inactive: SR > 100 µM | M14 > 100 µM | SW-620 > 100 µM | EKVX > 100 µM | SNB-75 21 µM | NCI-H522 34 µM | M19-MEL > 100 µM | HCT-116 > 100 µM | RXF 393 15.5 µM | Malme-3M > 100 µM | SNB-19 32.2 µM | RPMI-8226 > 100 µM | CCRF-CEM > 100 µM | A549 > 100 µM

COC(=O)C(CC(C)C)NC(=O)NC12CC3CC(CC(F)(C3)C1)C2 (centres undefined)
inactive: M14 > 100 µM | SW-620 > 100 µM | EKVX > 100 µM | SNB-75 27.1 µM | HOP-92 50.6 µM | NCI-H522 > 100 µM | M19-MEL > 100 µM | HCT-116 > 100 µM | RXF 393 > 100 µM | Malme-3M > 100 µM | SNB-19 > 100 µM | RPMI-8226 > 100 µM | CCRF-CEM > 100 µM | A549 > 100 µM

Cc1c(C)c2cc3c(=O)c(CCl)coc3c(C)c2oc1=O
inactive: M14 > 100 µM | SW-620 > 100 µM | EKVX > 100 µM | SNB-75 76.4 µM | NCI-H522 95.3 µM | M19-MEL > 100 µM | HCT-116 > 100 µM | RXF 393 57 µM | Malme-3M > 100 µM | SNB-19 > 100 µM | RPMI-8226 75 µM | CCRF-CEM 48.3 µM | A549 > 100 µM

CSc1nc2c(ncn2C2OC(CO)C(O)C(O)C2O)c(=O)[nH]1 (centres undefined)
inactive: SW-620 > 100 µM | EKVX > 100 µM | SNB-75 > 100 µM | HOP-92 > 100 µM | NCI-H522 > 100 µM | M19-MEL > 100 µM | HCT-116 > 100 µM | RXF 393 > 100 µM | Malme-3M > 100 µM | SNB-19 > 100 µM | RPMI-8226 > 100 µM | CCRF-CEM > 100 µM | A549 > 100 µM

O=C(O)C1(Cc2ccc3c(c2)CCC3)Cc2ccccc2C1
inactive: SR > 100 µM | M14 > 100 µM | SW-620 > 100 µM | T47D 49.2 µM | EKVX 54.2 µM | SNB-75 67.1 µM | HOP-92 29 µM | NCI-H522 42.3 µM | HCT-116 50.4 µM | RXF 393 68.2 µM | PC-3 63.5 µM | Malme-3M 71.3 µM | MDA-MB-231 > 100 µM | Hs-578T 73.1 µM | SNB-19 > 100 µM | RPMI-8226 71.1 µM | CCRF-CEM 62.8 µM | A549 43 µM | DU-145 > 100 µM

COC(=O)C(Cc1nc2ccc(Cl)cc2nc1O)/C(=N/O)C(=O)Nc1cccc(Cl)c1C (centres undefined)
inactive: SR > 100 µM | M14 > 100 µM | SW-620 > 100 µM | EKVX 10.1 µM | SNB-75 65.6 µM | NCI-H522 > 100 µM | M19-MEL > 100 µM | HCT-116 > 100 µM | RXF 393 88.1 µM | Malme-3M > 100 µM | SNB-19 > 100 µM | RPMI-8226 > 100 µM | CCRF-CEM > 100 µM | A549 > 100 µM

CC(C)(C)C(=O)/C=C(\OB(F)F)C(C)(C)C
inactive: SR 84.5 µM | M14 > 100 µM | SW-620 > 100 µM | T47D > 100 µM | EKVX > 100 µM | SNB-75 > 100 µM | HOP-92 > 100 µM | NCI-H522 > 100 µM | HCT-116 > 100 µM | RXF 393 > 100 µM | PC-3 > 100 µM | Malme-3M > 100 µM | MDA-MB-231 > 100 µM | Hs-578T > 100 µM | SNB-19 > 100 µM | RPMI-8226 > 100 µM | CCRF-CEM > 100 µM | A549 > 100 µM | DU-145 > 100 µM

O=C1NC2OC(C(O)CO)C(O)C2O1 (centres undefined)
inactive: SR > 100 µM | M14 > 100 µM | SW-620 > 100 µM | EKVX > 100 µM | SNB-75 > 100 µM | HOP-92 > 100 µM | NCI-H522 > 100 µM | M19-MEL > 100 µM | HCT-116 > 100 µM | Malme-3M > 100 µM | SNB-19 > 100 µM | CCRF-CEM > 100 µM | A549 > 100 µM

CC(C)c1cccc(C(C)C)c1NC(=S)Nc1ccccc1
inactive: SR > 100 µM | M14 > 100 µM | SW-620 > 100 µM | EKVX > 100 µM | SNB-75 36.5 µM | HOP-92 > 100 µM | M19-MEL > 100 µM | HCT-116 > 100 µM | RXF 393 75.5 µM | Malme-3M > 100 µM | SNB-19 > 100 µM | RPMI-8226 > 100 µM | CCRF-CEM 41.4 µM | A549 > 100 µM

Cc1ccccc1NC(=O)C(=O)CC(=O)c1ccc([N+](=O)[O-])cc1
inactive: M14 > 100 µM | SW-620 > 100 µM | EKVX > 100 µM | SNB-75 39.6 µM | HOP-92 > 100 µM | M19-MEL > 100 µM | HCT-116 > 100 µM | RXF 393 > 100 µM | Malme-3M > 100 µM | SNB-19 > 100 µM | RPMI-8226 > 100 µM | A549 > 100 µM

CCOC(=O)CC1=CSC2=NCCN12
inactive: M14 > 100 µM | SW-620 > 100 µM | EKVX > 100 µM | SNB-75 > 100 µM | HOP-92 > 100 µM | NCI-H522 > 100 µM | M19-MEL > 100 µM | HCT-116 > 100 µM | RXF 393 > 100 µM | Malme-3M > 100 µM | SNB-19 > 100 µM | CCRF-CEM > 100 µM | A549 > 100 µM

C/C1=C\CC/C(C)=C/C=C(/C(C)C)CC/C(C(=O)O)=C/CC1 [CROTOCEMBRANEIC ACID]
inactive: SR 22 µM | M14 45 µM | SW-620 42.3 µM | T47D 23.2 µM | EKVX 39 µM | SNB-75 77.3 µM | HOP-92 92.3 µM | NCI-H522 38.1 µM | HCT-116 40.3 µM | RXF 393 29.4 µM | PC-3 40.2 µM | Malme-3M 70.1 µM | MDA-MB-231 56.5 µM | Hs-578T 72.1 µM | SNB-19 53.3 µM | RPMI-8226 22.8 µM | CCRF-CEM 30.5 µM | A549 34.3 µM | DU-145 61.2 µM
